For one data set, the system named is HCV genotype 1b replicon. As to the kind of experiment: HCV replicon assay (Zluc luciferase reporter). In kind it is cell-based. As to the method: Huh-7-derived cell line (Zluc) that harbors an HCV genotype 1b replicon and a luciferase reporter gene was grown in Dulbecco's Modified Eagle Medium (DMEM) supplemented with 10% fetal bovine serum, 2 mM GlutaMAX, 1% MEM nonessential amino acids, 100 IU/mL penicillin, 100 μg/mL streptomycin, and 0.5 mg/mL Geneticin® (G418). For dose response testing the cells were seeded in 96-well plates at 7.5×10^3 cells per well in a volume of 50 μL, and incubated at 37° C./5% CO2. Drug solutions were made up freshly in Huh-7 media as 2× stocks. Ten additional 5-fold dilutions were prepared from these stocks in DMEM without G418. At least three hours after Zluc cells were seeded, drug treatment was initiated by adding 50 μL of drug dilutions to the plates in duplicate. Final concentrations of drug ranged from 100 μM to 0.0000512 μM. Cells were then incubated at 37° C./5% CO2. Alternatively, compounds were tested at two concentrations (1 μM and 10 μM). […] After 72 hours of incubation, the inhibition of HCV replication was measured by quantification of photons emitted after mono-oxygenation of 5′-fluoroluciferin to oxyfluoroluciferin by firefly luciferase. For this, media was removed from the plates via gentle tapping. Fifty microliters of ONE-glo luciferase assay reagent was added to each well. The plates were shaken gently for 3 min at room temperature and luminescence was measured on a Victor^3 V 1420 multilabel counter (Perkin Elmer) with a 1 second read time using a 700 nm cut-off filter. The EC50 values were calculated from dose response curves from the resulting best-fit equations determined by Microsoft Excel and XLfit 4.1 software. When screening at two fixed concentrations, the results were expressed as % inhibition at 1 μM and 10 μM.

Another data set concerns Zluc cells. The experiment in a line: Cytotoxicity evaluation, CellTiter-Blue Cell Viability Assay. Particulars: read-out: HCV Replicon CC50; Zluc cells, CellTiter-Blue cell viability. (In general: Alamar Blue is a resazurin reagent that responds to reducing activity.)
Experiment in data set [1]: as above
Particulars: human.

The nature of the next data set: in vitro. Particulars: human.
Data set [2] in a line: Pharmacokinetics of liver triphosphate following a single oral dose in CD-1 mice. It is filed as in vivo. The following applies: CD-1 male mice; for Ms Liver TP AUC: integrated concentration; for Ms Liver TP Cmax: single point concentration. As to the method:
A single oral dose of Compound 1 at 10 mg/kg in PEG 200 (dose volume 5 mL/kg) was administered to nine CD-1 male mice. Five untreated animals were used for the collection of control liver. Liver samples were collected from three animals per time point at 4, 12 and 24 hours post dose. Liver specimens were collected from all animals immediately after the incision. Freezing forceps stored in liquid nitrogen were used to freeze the liver before excision.
Liver samples were analyzed for the active species nucleoside triphosphate by LC-MS/MS. The triphosphate levels were assayed by homogenizing (on ice) a known weight of mouse liver with 4× volume of 0.95 M trichloroacetic acid (TCA). Internal standard solution was added to the homogenate followed by neutralization with 20% ammonium hydroxide solution and addition of 500 μL 1% formic acid. The tissue samples were extracted by weak anion exchange solid phase extraction (SPE). Post extraction, the eluates were evaporated under nitrogen, followed by reconstitution before injection onto the LC-MS/MS system. The samples were chromatographed on a Luna NH2 column using a gradient system of ammonium acetate (1 mM to 20 mM and pH 8.0 to pH 10.0) in water and acetonitrile (70:30). The analyte was detected and quantified by tandem mass spectrometry in positive ion mode on an API4000 equipped with a Turbo Ionspray® interface.

Data set [3] concerns the target wild-type HCV genotype 1b NS5B protein (Hepatitis C virus genotype 1b (isolate Con1) (HCV), UniProt Q9WMX2). The experiment in a line: HCV polymerase enzyme assay, wild-type. The following applies: nucleoside triphosphate form, recombinant HCV genotype 1b NS5B. In kind it is biochemical. From the text: (§1) Test compounds in the form of nucleoside triphosphates were examined for inhibitory activity against purified HCV polymerase in a standard assay. Bacterial expression constructs encoding the approximately 65 kDa HCV genotype 1b NS5B protein were used to generate recombinant HCV polymerases (with a deletion of the 21 carboxy terminal amino acids). Both the wild-type genotype 1b protein and protein containing the S282T mutation were expressed and purified for use in the enzymatic activity assay.
The enzymatic activity assay measured the inhibitory effect of increasing concentrations of test compound on the incorporation of α-[^33P]-labeled nucleotide into trichloroacetic acid-precipitable material. Recombinant polymerase and synthetic RNA template were combined in reaction buffer containing ribonucleoside triphosphates, α-[^33P]-labeled nucleotide and eight concentrations of test compound in three-fold dilutions. Reactions were incubated for two hours at 30° C.
(§2) Reactions were terminated by the addition of ice-cold trichloroacetic acid and sodium pyrophosphate to promote precipitation of newly-synthesized ribonucleic acid. Precipitable material from the reactions was collected by filtration onto 96-well filter plates, washed extensively with water, and quantified by liquid scintillation.
(§3) The inhibitory activity of test compounds was determined by fitting results to dose-response curves using XLfit software.

In data set [4] the target is HCV genotype 1b NS5B protein containing the S282T mutation (Hepatitis C virus genotype 1b (isolate Con1) (HCV), UniProt Q9WMX2, S2701T). As to the kind of experiment: HCV polymerase enzyme assay, S282T mutant. It is filed as biochemical. Particulars: nucleoside triphosphate form, recombinant HCV genotype 1b NS5B.
Excerpt: as §1
The enzymatic activity assay measured the inhibitory effect of increasing concentrations of test compound on the incorporation of α-[^33P]-labeled nucleotide into trichloroacetic acid-precipitable material. Recombinant polymerase and synthetic RNA template were combined in reaction buffer containing ribonucleoside triphosphates, α-[^33P]-labeled nucleotide and eight concentrations of test compound in three-fold dilutions. […]
as §2, §3

[5] abbreviates: Huh-7-derived Zluc cells, genotype 1b replicon, luciferase, 72 hours; read-out: HCV Replicon EC50.

Read-outs that look alike come from different tables or passages of the source.

As a reminder, the EC50 is the concentration needed to bring the measured effect to its halfway point. As to `C[C@@H](NP1(=O)OC[C@H]2[C@@H](O)[C@H](n3ccc(=O)[nH]c3=O)O[C@@H]2CO1)C(=O)OCc1ccccc1` (single isomer, unassigned) [Compound 120a (Diastereomer 2)], the EC50 in the data set on HCV genotype 1b replicon (setting [5]) is greater than 10 µM. For the same compound, the CC50 with Zluc cells was greater than 50 µM.
`CC(C)OC(=O)[C@@H](C)NP(=S)(OC[C@H]1O[C@@H](n2ccc(=O)[nH]c2=O)[C@H](O)[C@@H]1CO)Oc1ccccc1` (single isomer, unassigned) [Compound 122a Diastereomer 1]: in the data set with HCV genotype 1b replicon (Hepatitis C virus, 72 h, read-out: HCV Replicon EC50), the EC50 was greater than 10 µM. In addition, the CC50 at 72 h in data set [1] was greater than 50 µM.
As for `CC(C)OC(=O)[C@@H](C)NP(=S)(OC[C@H]1O[C@@H](n2ccc(=O)[nH]c2=O)[C@H](O)[C@@H]1CO)Oc1ccccc1` (single isomer, unassigned) [Compound 122a Diastereomer 2], the EC50 in the data set on HCV genotype 1b replicon (read-out: HCV Replicon EC50; Huh-7-derived Zluc cells, genotype 1b replicon, luciferase, 72 hours) is greater than 10 µM. Besides, the CC50 in the data set on Zluc cells is greater than 50 µM.
For `C[C@@H](NP(=O)(OC[C@H]1O[C@@H](n2ccc(=O)[nH]c2=O)[C@H](O)[C@@H]1CO)Oc1ccccc1)C(=O)OCc1ccccc1` (single isomer, unassigned) [Compound 123a Diastereomer 2], the EC50 in the data set with HCV genotype 1b replicon (setting [5]) is greater than 10 µM. The CC50 with Zluc cells was greater than 50 µM.
Take `C[C@@H](NP(=O)(OC[C@H]1O[C@@H](n2cnc3c(=O)[nH]c(N)nc32)[C@H](O)[C@@H]1CF)Oc1ccccc1)C(=O)OC1CCCC1` (single isomer, unassigned) [Compound 124a Diastereomer 2]: the EC50 in the data set on HCV genotype 1b replicon (setting [5]) was greater than 10 µM. Also, the CC50 in the data set with Zluc cells was greater than 50 µM.
In turn, `CCOc1nc(N)nc2c1ncn2[C@@H]1O[C@H](COP(=O)(N[C@H](C)C(=O)OC(C)C)Oc2ccccc2)[C@@H](CF)[C@H]1O` (single isomer, unassigned) [Compound 125a Diastereomer 1] came in with a CC50 in the data set “in vitro” greater than 50 µM. For the same compound, in data set [2], the “Ms Liver TP AUC” value is on record as “+++ (500 <+++ ≤1500)” and the “Ms Liver TP Cmax” value is listed as “+++ (50 < +++ ≤100)”. The half-maximal effective concentration (EC50) in the data set on HCV genotype 1b replicon (Hepatitis C virus; Huh-7-derived Zluc cells, genotype 1b replicon, luciferase, 72 hours; read-out: HCV Replicon EC50) was greater than 10 µM.
On to `CCOc1nc(N)nc2c1ncn2[C@@H]1O[C@H](COP(=O)(N[C@H](C)C(=O)OC(C)C)Oc2ccccc2)[C@@H](CF)[C@H]1O` (single isomer, unassigned) [Compound 125a Diastereomer 2], for which, in data set [2], the “Ms Liver TP AUC” value is “+++ (500 <+++ ≤1500)” and the “Ms Liver TP Cmax” value was “+++ (50 < +++ ≤100)”. In the data set with HCV genotype 1b replicon (setting [5]), the concentration giving a half-maximal response (EC50) was greater than 10 µM. Also, the CC50 with Zluc cells is greater than 50 µM.
As to `CC(C)OC(=O)C(C)NP(=O)(NC(C)C(=O)OC(C)C)OC[C@H]1O[C@@H](n2ccc(=O)[nH]c2=O)[C@H](O)[C@@H]1CO` (stereo partly drawn) [Compound 116], at HCV genotype 1b replicon (setting [5]), the concentration giving a half-maximal response (EC50) is greater than 10 µM. The CC50 in the data set with Zluc cells is greater than 50 µM.
As to `Nc1nc2c(ncn2[C@@H]2O[C@H](CO)[C@@H](CO)[C@H]2O)c(=O)[nH]1` [Compound 208], the concentration giving a half-maximal response (EC50) on HCV genotype 1b replicon (setting [5]) was greater than 10 µM. The CC50 in the data set on Zluc cells was greater than 50 µM.
Regarding `Nc1nc(SCCO)c2ncn([C@@H]3O[C@H](CO)[C@@H](CO)[C@H]3O)c2n1` [Compound 209], the EC50 at HCV genotype 1b replicon (setting [5]) is greater than 10 µM. Moreover, the CC50 in the data set on Zluc cells is greater than 50 µM.
One may read the IC50 as the concentration that gives 50% inhibition. Take `Nc1ncnc2c1ncn2[C@@H]1O[C@H](COP(=O)(O)OP(=O)(O)OP(=O)(O)O)[C@@H](CO)[C@H]1O` [Compound 307]: the concentration for half-maximal inhibition (IC50) in data set [3] lay within 0.25 to 1 µM.
For the compound `Nc1nc2c(ncn2[C@@H]2O[C@H](COP(=O)(O)OP(=O)(O)OP(=O)(O)O)[C@@H](CO)[C@H]2O)c(=O)[nH]1` [Compound 308], the concentration for half-maximal inhibition (IC50) in data set [4] and in data set [3] was less than 0.25 µM in each case.
As to `Nc1ncnc2c1ncn2[C@@H]1O[C@H](COP(=O)(O)OP(=O)(O)OP(=O)(O)O)[C@@H](CF)[C@H]1O` [Compound 326], the IC50 in data set [3] fell in the range of 1 to 10 µM.
On to `Nc1nc2c(ncn2[C@@H]2O[C@H](COP(=O)(O)OP(=O)(O)OP(=O)(O)O)[C@@H](CF)[C@H]2O)c(=O)[nH]1` [Compound 327], for which the IC50 in data set [4] and in data set [3] was less than 0.25 µM in each case.

These data come from patent US10202411B2, “3′-substituted methyl or alkynyl nucleosides nucleotides for the treatment of HCV” (priority 2014, dated 2019).
